Test results taken from patent US9771369B2, “Compounds and methods for kinase modulation, and indications therefor” (Plexxikon Inc., priority 2014, dated 2017).

Tests used:
c-Kit kinase = c-Kit kinase (Homo sapiens (Human), UniProt P10721); assay: c-Kit biochemical assay (AlphaScreen kinase activity)
Procedure, shortened: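 IC50 values come from 8-point, 1:3 compound titrations measuring inhibition of peptide phosphorylation by c-Kit (commercial or His-tagged E. coli-expressed) over 1 h at room temperature, read by AlphaScreen PY30/streptavidin beads. Low-ATP version: 10 μM ATP, 100 nM biotin-(E4Y)3; high-ATP version: 100 μM ATP, 30 nM biotin-(E4Y)10.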

[1] = system: BaF3-FL KIT D816V or BaF3-FL KIT V560G/D816V cell line; assay: Cell-based assays of c-Kit mutant kinase activity (cell proliferation, ATPlite); settings: at least one of the c-kit cell assays of Example 7
Procedure, shortened: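 BaF3 cells dependent on transfected full-length human KIT D816V or V560G/D816V (pCI-Neo, CMV promoter) were seeded at 1×10^4 cells/well and exposed to 8-point 1:3 dilutions from 10 μM top (0.2% DMSO) for three days at 37° C. ATPlite luminescence gave cell number; IC50 from concentration-response.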

Chain of c-Kit kinase (P10721 26-976): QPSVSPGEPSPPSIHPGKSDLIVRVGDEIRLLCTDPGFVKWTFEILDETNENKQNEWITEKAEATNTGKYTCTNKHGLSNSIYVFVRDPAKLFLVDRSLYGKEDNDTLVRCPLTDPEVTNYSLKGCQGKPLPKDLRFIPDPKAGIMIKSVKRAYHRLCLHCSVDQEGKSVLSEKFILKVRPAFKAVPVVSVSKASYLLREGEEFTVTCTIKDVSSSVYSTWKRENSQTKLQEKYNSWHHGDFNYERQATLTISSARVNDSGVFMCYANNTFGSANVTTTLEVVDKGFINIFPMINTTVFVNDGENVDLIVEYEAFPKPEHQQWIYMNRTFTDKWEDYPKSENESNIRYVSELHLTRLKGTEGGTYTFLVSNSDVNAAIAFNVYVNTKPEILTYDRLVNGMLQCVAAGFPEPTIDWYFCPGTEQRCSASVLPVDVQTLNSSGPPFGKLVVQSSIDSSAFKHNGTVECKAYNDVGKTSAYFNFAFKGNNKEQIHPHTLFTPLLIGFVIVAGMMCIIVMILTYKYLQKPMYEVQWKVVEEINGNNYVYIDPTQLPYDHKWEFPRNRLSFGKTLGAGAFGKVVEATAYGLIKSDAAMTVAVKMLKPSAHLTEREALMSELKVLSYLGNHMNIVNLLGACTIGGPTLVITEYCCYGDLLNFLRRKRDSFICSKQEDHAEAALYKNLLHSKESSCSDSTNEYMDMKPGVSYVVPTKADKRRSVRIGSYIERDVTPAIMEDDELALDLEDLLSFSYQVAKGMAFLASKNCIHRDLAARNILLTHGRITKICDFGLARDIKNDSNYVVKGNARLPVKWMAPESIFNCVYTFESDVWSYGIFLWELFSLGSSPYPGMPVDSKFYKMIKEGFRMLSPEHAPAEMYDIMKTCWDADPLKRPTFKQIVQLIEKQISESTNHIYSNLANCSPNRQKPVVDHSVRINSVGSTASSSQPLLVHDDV

CCOc1ccc(-c2[nH]c(C3(C)CCN(c4ncnc5[nH]c(-c6ccc(C(=O)NC)nc6)cc45)CC3)nc2C)cc1 [P-3226, 5-[4-[4-[5-(4-ethoxyphenyl)-4-methyl-1H-imidazol-2-yl]-4-methyl-1-piperidyl]-7H-pyrrolo[2,3-d]pyrimidin-6-yl]-N-methyl-pyridine-2-carboxamide]
IC50 (c-Kit kinase): 0.0001 to 1 µM
IC50 [1]: < 10000 nM

CCOc1ccc(-c2[nH]c(C3(C)CCN(c4ncnc5[nH]c(-c6ccc(N7CCOCC7)nc6)cc45)CC3)nc2C)cc1 [P-3227, 4-[5-[4-[4-[5-(4-ethoxyphenyl)-4-methyl-1H-imidazol-2-yl]-4-methyl-1-piperidyl]-7H-pyrrolo[2,3-d]pyrimidin-6-yl]-2-pyridyl]morpholine]
IC50 (c-Kit kinase): 0.0001 to 1 µM
IC50 [1]: < 10000 nM

COc1ccc(-c2[nH]c(C3(C)CCN(c4ncnc5[nH]c(-c6ccc(NS(C)(=O)=O)cc6)cc45)CC3)nc2C)cc1C [P-3228, N-[4-[4-[4-[5-(4-methoxy-3-methyl-phenyl)-4-methyl-1H-imidazol-2-yl]-4-methyl-1-piperidyl]-7H-pyrrolo[2,3-d]pyrimidin-6-yl]phenyl]methanesulfonamide]
IC50 (c-Kit kinase): 0.0001 to 1 µM
IC50 [1]: < 10000 nM

CCOc1ccc(-c2[nH]c(C3(C)CCN(c4ncnc5[nH]c(-c6ccc(C(N)=O)cc6)cc45)CC3)nc2C)cc1 [P-3229, 4-[4-[4-[5-(4-ethoxyphenyl)-4-methyl-1H-imidazol-2-yl]-4-methyl-1-piperidyl]-7H-pyrrolo[2,3-d]pyrimidin-6-yl]benzamide]
IC50 (c-Kit kinase): 0.0001 to 1 µM
IC50 [1]: < 10000 nM

CCOc1ccc(-c2[nH]c(C3(C)CCN(c4ncnc5[nH]c(-c6ccc(NS(C)(=O)=O)cc6)cc45)CC3)nc2C)cc1 [P-3230, N-[4-[4-[4-[5-(4-ethoxyphenyl)-4-methyl-1H-imidazol-2-yl]-4-methyl-1-piperidyl]-7H-pyrrolo[2,3-d]pyrimidin-6-yl]phenyl]methanesulfonamide]
IC50 (c-Kit kinase): 0.0001 to 1 µM
IC50 [1]: < 10000 nM

Cc1nc(C2(C)CCN(c3ncnc4[nH]c(-c5ccc(C(N)=O)cc5)cc34)CC2)[nH]c1-c1cccc(OC(F)F)c1 [P-3231, 4-[4-[4-[5-[3-(difluoromethoxy)phenyl]-4-methyl-1H-imidazol-2-yl]-4-methyl-1-piperidyl]-7H-pyrrolo[2,3-d]pyrimidin-6-yl]benzamide]
IC50 (c-Kit kinase): 0.0001 to 1 µM
IC50 [1]: < 10000 nM

Cc1nc(C2(C)CCN(c3ncnc4[nH]c(-c5ccc(NS(C)(=O)=O)cc5)cc34)CC2)[nH]c1-c1cccc(OC(F)F)c1 [P-3232, N-[4-[4-[4-[5-[3-(difluoromethoxy)phenyl]-4-methyl-1H-imidazol-2-yl]-4-methyl-1-piperidyl]-7H-pyrrolo[2,3-d]pyrimidin-6-yl]phenyl]methanesulfonamide]
IC50 (c-Kit kinase): 0.0001 to 1 µM
IC50 [1]: < 10000 nM

Cc1nc(C2(C)CCN(c3ncnc4[nH]c(-c5ccc(OCC(=O)O)cc5)cc34)CC2)[nH]c1-c1cccc(OC(F)F)c1 [P-3233, 2-[4-[4-[4-[5-[3-(difluoromethoxy)phenyl]-4-methyl-1H-imidazol-2-yl]-4-methyl-1-piperidyl]-7H-pyrrolo[2,3-d]pyrimidin-6-yl]phenoxy]acetic acid]
IC50 (c-Kit kinase): 0.0001 to 1 µM
IC50 [1]: < 10000 nM

COc1cccc(-c2[nH]c(C3(C)CCN(c4ncnc5[nH]c(-c6ccc(NS(C)(=O)=O)cc6)cc45)CC3)nc2C)c1 [P-3234, N-[4-[4-[4-[5-(3-methoxyphenyl)-4-methyl-1H-imidazol-2-yl]-4-methyl-1-piperidyl]-7H-pyrrolo[2,3-d]pyrimidin-6-yl]phenyl]methanesulfonamide]
IC50 (c-Kit kinase): 0.0001 to 1 µM
IC50 [1]: < 10000 nM

CNC(=O)c1ccc(-c2cc3c(N4CCC(C)(c5nc(C)c(-c6ccc(C(F)F)cc6)[nH]5)CC4)ncnc3[nH]2)cn1 [P-3235, 5-[4-[4-[5-[4-(difluoromethyl)phenyl]-4-methyl-1H-imidazol-2-yl]-4-methyl-1-piperidyl]-7H-pyrrolo[2,3-d]pyrimidin-6-yl]-N-methyl-pyridine-2-carboxamide]
IC50 (c-Kit kinase): 0.0001 to 1 µM
IC50 [1]: < 10000 nM

CNC(=O)c1ccc(-c2cc3c(N4CCC(C)(c5nc(C)c(-c6cccc(OC(F)F)c6)[nH]5)CC4)ncnc3[nH]2)cn1 [P-3236, 5-[4-[4-[5-[3-(difluoromethoxy)phenyl]-4-methyl-1H-imidazol-2-yl]-4-methyl-1-piperidyl]-7H-pyrrolo[2,3-d]pyrimidin-6-yl]-N-methyl-pyridine-2-carb oxamide]
IC50 (c-Kit kinase): 0.0001 to 1 µM
IC50 [1]: < 10000 nM

Cc1nc(C2(C)CCN(c3ncnc4[nH]c(-c5ccc(N6CCOCC6)nc5)cc34)CC2)[nH]c1-c1ccc(C(F)F)cc1 [P-3237, 4-[5-[4-[4-[5-[4-(difluoromethyl)phenyl]-4-methyl-1H-imidazol-2-yl]-4-methyl-1-piperidyl]-7H-pyrrolo[2,3-d]pyrimidin-6-yl]-2-pyridyl]morpholine]
IC50 (c-Kit kinase): 0.0001 to 1 µM
IC50 [1]: < 10000 nM

Cc1nc(C2(C)CCN(c3ncnc4[nH]c(-c5ccc(N6CCOCC6)nc5)cc34)CC2)[nH]c1-c1cccc(OC(F)F)c1 [P-3238, 4-[5-[4-[4-[5-[3-(difluoromethoxy)phenyl]-4-methyl-1H-imidazol-2-yl]-4-methyl-1-piperidyl]-7H-pyrrolo[2,3-d]pyrimidin-6-yl]-2-pyridyl]morpholine]
IC50 (c-Kit kinase): 0.0001 to 1 µM
IC50 [1]: < 10000 nM

Cc1nc(C2(C)CCN(c3ncnc4[nH]c(-c5ccc(C(N)=O)cc5)cc34)CC2)[nH]c1-c1ccc(C(F)F)cc1 [P-3239, 4-[4-[4-[5-[4-(difluoromethyl)phenyl]-4-methyl-1H-imidazol-2-yl]-4-methyl-1-piperidyl]-7H-pyrrolo[2,3-d]pyrimidin-6-yl]benzamide]
IC50 (c-Kit kinase): 0.0001 to 1 µM
IC50 [1]: < 10000 nM

Cc1nc(C2(C)CCN(c3ncnc4[nH]c(-c5ccc(OCC(=O)O)cc5)cc34)CC2)[nH]c1-c1ccc(C(F)F)cc1 [P-3240, 2-[4-[4-[4-[5-[4-(difluoromethyl)phenyl]-4-methyl-1H-imidazol-2-yl]-4-methyl-1-piperidyl]-7H-pyrrolo[2,3-d]pyrimidin-6-yl]phenoxy]acetic acid]
IC50 (c-Kit kinase): 0.0001 to 1 µM
IC50 [1]: < 10000 nM

Cc1nc(C2(C)CCN(c3ncnc4[nH]c(-c5ccc(OCC(=O)O)cc5)cc34)CC2)[nH]c1-c1ccc(OC(F)F)cc1 [P-3241, 2-[4-[4-[4-[5-[4-(difluoromethoxy)phenyl]-4-methyl-1H-imidazol-2-yl]-4-methyl-1-piperidyl]-7H-pyrrolo[2,3-d]pyrimidin-6-yl]phenoxy]acetic acid]
IC50 (c-Kit kinase): 0.0001 to 1 µM
IC50 [1]: < 10000 nM

Cc1nc(C2(C)CCN(c3ncnc4[nH]c(-c5cnn(C(F)F)c5)cc34)CC2)[nH]c1-c1ccc(OC(F)F)cc1 [P-3242, 4-[4-[5-[4-(difluoromethoxy)phenyl]-4-methyl-1H-imidazol-2-yl]-4-methyl-1-piperidyl]-6-[1-(difluoromethyl)pyrazol-4-yl]-7H-pyrrolo[2,3-d]pyrimidine]
IC50 (c-Kit kinase): 0.0001 to 1 µM
IC50 [1]: < 10000 nM

CCOc1ccc(-c2[nH]c(C3(C)CCN(c4ncnc5[nH]c(-c6ccc(C(N)=O)cc6)cc45)CC3)nc2C)cc1C [P-3243, 4-[4-[4-[5-(4-ethoxy-3-methyl-phenyl)-4-methyl-1H-imidazol-2-yl]-4-methyl-1-piperidyl]-7H-pyrrolo[2,3-d]pyrimidin-6-yl]benzamide]
IC50 (c-Kit kinase): 0.0001 to 1 µM
IC50 [1]: < 10000 nM

CCOc1ccc(-c2[nH]c(C3(C)CCN(c4ncnc5[nH]c(-c6ccc(OCC(=O)O)cc6)cc45)CC3)nc2C)cc1C [P-3244, 2-[4-[4-[4-[5-(4-ethoxy-3-methyl-phenyl)-4-methyl-1H-imidazol-2-yl]-4-methyl-1-piperidyl]-7H-pyrrolo[2,3-d]pyrimidin-6-yl]phenoxy]acetic acid]
IC50 (c-Kit kinase): 0.0001 to 1 µM
IC50 [1]: < 10000 nM

CCOc1ccc(-c2[nH]c(C3(C)CCN(c4ncnc5[nH]c(-c6cnn(C(F)F)c6)cc45)CC3)nc2C)cc1C [P-3245, 6-[1-(difluoromethyl)pyrazol-4-yl]-4-[4-[5-(4-ethoxy-3-methyl-phenyl)-4-methyl-1H-imidazol-2-yl]-4-methyl-1-piperidyl]-7H-pyrrolo[2,3-d]pyrimidine]
IC50 (c-Kit kinase): 0.0001 to 1 µM
IC50 [1]: < 10000 nM

CNC(=O)c1ccc(-c2cc3c(N4CCC(C)(c5nc(C)c(-c6ccc(OC(F)F)cc6)[nH]5)CC4)ncnc3[nH]2)cn1 [P-3246, 5-[4-[4-[5-[4-(difluoromethoxy)phenyl]-4-methyl-1H-imidazol-2-yl]-4-methyl-1-piperidyl]-7H-pyrrolo[2,3-d]pyrimidin-6-yl]-N-methyl-pyridine-2-carb oxamide]
IC50 (c-Kit kinase): 0.0001 to 1 µM
IC50 [1]: < 10000 nM

CCOc1ccc(-c2[nH]c(C3(C)CCN(c4ncnc5[nH]c(-c6ccc(C(=O)NC)nc6)cc45)CC3)nc2C)cc1C [P-3247, 5-[4-[4-[5-(4-ethoxy-3-methyl-phenyl)-4-methyl-1H-imidazol-2-yl]-4-methyl-1-piperidyl]-7H-pyrrolo[2,3-d]pyrimidin-6-yl]-N-methyl-pyridine-2-carb oxamide]
IC50 (c-Kit kinase): 0.0001 to 1 µM
IC50 [1]: < 10000 nM

Cc1nc(C2(C)CCN(c3ncnc4[nH]c(-c5ccc(N6CCOCC6)nc5)cc34)CC2)[nH]c1-c1ccc(OC(F)F)cc1 [P-3248, 4-[5-[4-[4-[5-[4-(difluoromethoxy)phenyl]-4-methyl-1H-imidazol-2-yl]-4-methyl-1-piperidyl]-7H-pyrrolo[2,3-d]pyrimidin-6-yl]-2-pyridyl]morpholine]
IC50 (c-Kit kinase): 0.0001 to 1 µM
IC50 [1]: < 10000 nM

CCOc1ccc(-c2[nH]c(C3(C)CCN(c4ncnc5[nH]c(-c6ccc(N7CCOCC7)nc6)cc45)CC3)nc2C)cc1C [P-3249, 4-[5-[4-[4-[5-(4-ethoxy-3-methyl-phenyl)-4-methyl-1H-imidazol-2-yl]-4-methyl-1-piperidyl]-7H-pyrrolo[2,3-d]pyrimidin-6-yl]-2-pyridyl]morpholine]
IC50 (c-Kit kinase): 0.0001 to 1 µM
IC50 [1]: < 10000 nM
